# Test system: mRNA expressed from the genes (A) to (D) in rat liver
# Assay: Behavior of genes (mRNA expression level, oligo-DNA microarray) in rat liver after 28-day oral administration
# Type: in vivo
# Method: A test solution was prepared by dissolving each of the carcinogens and the non-carcinogens shown in Tables 2 to 6 in the corresponding solvent shown in Tables 2 to 6. Each of the thus prepared test solutions and the solvents used for the preparation was administered by oral gavage to rats in each group. As the rats, male rats (F344 SPF rats) at 5 weeks of age obtained from Charles River Laboratories Japan, Inc. were used. The animals were divided into groups, each containing four individuals. The volume of the solvent administered to the vehicle control group was set to the same volume as that of the test solution administered to the carcinogen administration group or the non-carcinogen administration group. The administration of the test solution or the solvent was performed once daily for 28 days. Apiece was excised from the liver of each of the rats after a lapse of 28 days from the initiation of the administration, and the total RNA was extracted and purified.
# The expression level of mRNA was compared between each of the chemical substance administration groups and the corresponding vehicle control group, and genes that satisfy the requirements described in (A) to (D) were selected, respectively.
# The case where the expression level of mRNA in the carcinogen administration group or the non-carcinogen administration group is 1.5 times or more or 1/1.5 or less of the expression level of the corresponding mRNA expressed in the control group was determined to be significant. In this connection, the determination as to whether or not the change is significant was performed by taking into consideration the direction of increase or decrease in the expression level. In the case where the direction of increase or decrease is different as compared with the case where another carcinogen was administered, the change was determined to be not significant.
# [1] = gene group (A), Unigene No. Rn.167075, mRNA vs vehicle control group
# [2] = gene group (C), Unigene No. Rn.120914, mRNA vs vehicle control group
# [3] = (C), Unigene Rn.120914, defined direction +, rat liver, oral once daily 28 days
smiles,measurement,setting,value
"Clc1c(Cl)c(Cl)c(Cl)c(Cl)c1Cl [TS020, Hexachlorobenzene]","Behavior of gene caused by administration of chemical substance, Gene No. 4846","gene group (A), Unigene No. Rn.144554, mRNA vs vehicle control group",−
same,"Behavior of gene caused by administration of chemical substance, Gene No. 2026",[1],−
same,"Behavior of gene caused by administration of chemical substance, Gene No. 4218",[1],−
same,"Behavior of gene caused by administration of chemical substance, Gene No. 6182","gene group (A), Unigene No. Rn.5834, mRNA vs vehicle control group",+
same,"Behavior of gene caused by administration of chemical substance, Gene No. 5600","gene group (A), Unigene No. Rn.9836, mRNA vs vehicle control group",−
same,"Behavior of gene caused by administration of chemical substance, Gene No. 1494","gene group (B), Unigene No. Rn.1430, mRNA vs vehicle control group",+
same,"Behavior of gene caused by administration of chemical substance, Gene No. 2045","gene group (B), Unigene No. Rn.19329, mRNA vs vehicle control group",+
same,"Behavior of gene caused by administration of chemical substance, Gene No. 2203","gene group (B), Unigene No. Rn.21240, mRNA vs vehicle control group",+
same,"Behavior of gene caused by administration of chemical substance, Gene No. 533","gene group (C), Unigene No. Rn.106184, mRNA vs vehicle control group",+
same,"Behavior of gene caused by administration of chemical substance, Gene No. 725","gene group (C), Unigene No. Rn.108075, mRNA vs vehicle control group",−
same,"Behavior of gene caused by administration of chemical substance, Gene No. 1163","gene group (C), Unigene No. Rn.11766, mRNA vs vehicle control group",−
same,"Behavior of gene caused by administration of chemical substance, Gene No. 4973","gene group (C), Unigene No. Rn.118529, mRNA vs vehicle control group",−
same,"Behavior of gene caused by administration of chemical substance, Gene No. 4095","gene group (C), Unigene No. Rn.119024, mRNA vs vehicle control group",−
same,"Behavior of gene caused by administration of chemical substance, Gene No. 1334",[2],−
same,"Behavior of gene caused by administration of chemical substance, Gene No. 6620",[2],−
same,"Behavior of gene caused by administration of chemical substance, Gene No. 6303","gene group (C), Unigene No. Rn.123063, mRNA vs vehicle control group",−
same,"Behavior of gene caused by administration of chemical substance, Gene No. 5878","gene group (C), Unigene No. Rn.143213, mRNA vs vehicle control group",−
same,"Behavior of gene caused by administration of chemical substance, Gene No. 1131","gene group (C), Unigene No. Rn.144946, mRNA vs vehicle control group",−
same,"Behavior of gene caused by administration of chemical substance, Gene No. 1562","gene group (C), Unigene No. Rn.14744, mRNA vs vehicle control group",−
same,"Behavior of gene caused by administration of chemical substance, Gene No. 1741","gene group (C), Unigene No. Rn.1647, mRNA vs vehicle control group",−
same,"Behavior of gene caused by administration of chemical substance, Gene No. 893","gene group (C), Unigene No. Rn.164817, mRNA vs vehicle control group",−
same,"Behavior of gene caused by administration of chemical substance, Gene No. 6026","gene group (C), Unigene No. Rn.167685, mRNA vs vehicle control group",−
same,"Behavior of gene caused by administration of chemical substance, Gene No. 154","gene group (C), Unigene No. Rn.185941, mRNA vs vehicle control group",−
same,"Behavior of gene caused by administration of chemical substance, Gene No. 1993","gene group (C), Unigene No. Rn.18728, mRNA vs vehicle control group",−
same,"Behavior of gene caused by administration of chemical substance, Gene No. 813","gene group (C), Unigene No. Rn.201760, mRNA vs vehicle control group",−
same,"Behavior of gene caused by administration of chemical substance, Gene No. 2494","gene group (C), Unigene No. Rn.23969, mRNA vs vehicle control group",−
same,"Behavior of gene caused by administration of chemical substance, Gene No. 2546","gene group (C), Unigene No. Rn.24561, mRNA vs vehicle control group",−
same,"Behavior of gene caused by administration of chemical substance, Gene No. 3776","gene group (C), Unigene No. Rn.43232, mRNA vs vehicle control group",−
same,"Behavior of gene caused by administration of chemical substance, Gene No. 3929","gene group (C), Unigene No. Rn.4620, mRNA vs vehicle control group",−
same,"Behavior of gene caused by administration of chemical substance, Gene No. 1119","gene group (C), Unigene No. Rn.9757, mRNA vs vehicle control group",−
same,"Behavior of gene caused by administration of chemical substance, Gene No. 6742","gene group (C), Unigene No. Rn.9779, mRNA vs vehicle control group",−
same,"Behavior of gene caused by administration of chemical substance, Gene No. 5634","gene group (C), Unigene No. Rn.9862, mRNA vs vehicle control group",−
same,"Behavior of gene caused by administration of chemical substance, Gene No. 5726","gene group (D), Unigene No. Rn.9939, mRNA vs vehicle control group",−
"C1COCCO1 [TS027, 1,4-Dioxane]","Behavior of gene caused by administration of chemical substance, Gene No. 4846","(A), Unigene Rn.144554, defined direction +, rat liver, oral once daily 28 days",+
same,"Behavior of gene caused by administration of chemical substance, Gene No. 4218","(A), Unigene Rn.167075, defined direction +, rat liver, oral once daily 28 days, significant = 1.5 times or more or 1/1.5 or less of control",+
same,"Behavior of gene caused by administration of chemical substance, Gene No. 2026","(A), Unigene Rn.167075, defined direction −, rat liver, oral once daily 28 days",+
same,"Behavior of gene caused by administration of chemical substance, Gene No. 6182","(A), Unigene Rn.5834, defined direction +, rat liver, oral once daily 28 days",+
same,"Behavior of gene caused by administration of chemical substance, Gene No. 5600","(A), Unigene Rn.9836, defined direction +, rat liver, oral once daily 28 days",+
same,"Behavior of gene caused by administration of chemical substance, Gene No. 1494","(B), Unigene Rn.1430, defined direction −, rat liver, oral once daily 28 days",+
same,"Behavior of gene caused by administration of chemical substance, Gene No. 2045","(B), Unigene Rn.19329, defined direction +, rat liver, oral once daily 28 days",−
same,"Behavior of gene caused by administration of chemical substance, Gene No. 2203","(B), Unigene Rn.21240, defined direction +, rat liver, oral once daily 28 days",−
same,"Behavior of gene caused by administration of chemical substance, Gene No. 533","(C), Unigene Rn.106184, defined direction +, rat liver, oral once daily 28 days",+
same,"Behavior of gene caused by administration of chemical substance, Gene No. 725","(C), Unigene Rn.108075, defined direction −, rat liver, oral once daily 28 days",−
same,"Behavior of gene caused by administration of chemical substance, Gene No. 1163","(C), Unigene Rn.11766, defined direction +, rat liver, oral once daily 28 days",−
same,"Behavior of gene caused by administration of chemical substance, Gene No. 4973","(C), Unigene Rn.118529, defined direction −, rat liver, oral once daily 28 days",−
same,"Behavior of gene caused by administration of chemical substance, Gene No. 4095","(C), Unigene Rn.119024, defined direction −, rat liver, oral once daily 28 days",−
same,"Behavior of gene caused by administration of chemical substance, Gene No. 1334",[3],−
same,"Behavior of gene caused by administration of chemical substance, Gene No. 6620",[3],−
same,"Behavior of gene caused by administration of chemical substance, Gene No. 6303","(C), Unigene Rn.123063, defined direction −, rat liver, oral once daily 28 days",−
same,"Behavior of gene caused by administration of chemical substance, Gene No. 5878","(C), Unigene Rn.143213, defined direction −, rat liver, oral once daily 28 days",−
same,"Behavior of gene caused by administration of chemical substance, Gene No. 1131","(C), Unigene Rn.144946, defined direction −, rat liver, oral once daily 28 days",−
same,"Behavior of gene caused by administration of chemical substance, Gene No. 1562","(C), Unigene Rn.14744, defined direction −, rat liver, oral once daily 28 days",+
same,"Behavior of gene caused by administration of chemical substance, Gene No. 1741","(C), Unigene Rn.1647, defined direction −, rat liver, oral once daily 28 days",+
same,"Behavior of gene caused by administration of chemical substance, Gene No. 893","(C), Unigene Rn.164817, defined direction +, rat liver, oral once daily 28 days",−
same,"Behavior of gene caused by administration of chemical substance, Gene No. 6026","(C), Unigene Rn.167685, defined direction −, rat liver, oral once daily 28 days",−
same,"Behavior of gene caused by administration of chemical substance, Gene No. 154","(C), Unigene Rn.185941, defined direction −, rat liver, oral once daily 28 days",+
same,"Behavior of gene caused by administration of chemical substance, Gene No. 1993","(C), Unigene Rn.18728, defined direction −, rat liver, oral once daily 28 days",+
same,"Behavior of gene caused by administration of chemical substance, Gene No. 813","(C), Unigene Rn.201760, defined direction +, rat liver, oral once daily 28 days",+
same,"Behavior of gene caused by administration of chemical substance, Gene No. 2494","(C), Unigene Rn.23969, defined direction +, rat liver, oral once daily 28 days",−
same,"Behavior of gene caused by administration of chemical substance, Gene No. 2546","(C), Unigene Rn.24561, defined direction −, rat liver, oral once daily 28 days",−
same,"Behavior of gene caused by administration of chemical substance, Gene No. 3776","(C), Unigene Rn.43232, defined direction −, rat liver, oral once daily 28 days",−
same,"Behavior of gene caused by administration of chemical substance, Gene No. 3929","(C), Unigene Rn.4620, defined direction +, rat liver, oral once daily 28 days",−
same,"Behavior of gene caused by administration of chemical substance, Gene No. 1119","(C), Unigene Rn.9757, defined direction +, rat liver, oral once daily 28 days",+
same,"Behavior of gene caused by administration of chemical substance, Gene No. 6742","(C), Unigene Rn.9779, defined direction +, rat liver, oral once daily 28 days",+
same,"Behavior of gene caused by administration of chemical substance, Gene No. 5634","(C), Unigene Rn.9862, defined direction −, rat liver, oral once daily 28 days",−
same,"Behavior of gene caused by administration of chemical substance, Gene No. 5726","(D), Unigene Rn.9939, defined direction −, rat liver, oral once daily 28 days",−

# From patent US20110039721A1, “METHOD FOR PREDICTION ABOUT CARCINOGENICITY OF SUBSTANCE IN RODENT” (Chemicals Evaluation and Research Institute, priority 2007, published 2011)
